Results from US10174037B2, “Dihydropyrazolopyrimidinone compounds as PDE2 inhibitors” (Merck Sharp & Dohme Corp., priority 2015, dated 2019).
Where two headings read alike, the source gives them in different places.

Experiments:
Rhesus PDE2A3 = Rhesus PDE2A3 (Macaca mulatta, UniProt B3VTJ2); assay: PDE2 fluorescence polarization (IMAP FP) assay, rhesus PDE2A3; format: biochemical, rhesus macaque
Description: A Labcyte Echo 555 (Labcyte, Sunnyvale, Calif.) is used to dispense 200 nL from each well of the titration plate to the 384 well assay plate. Ten microliters of a solution of enzyme (1/2000 final dilution from aliquots; sufficient to produce 20% substrate conversion) was added to the assay plate. Next 10 uL of a separate solution of the substrate FAM-labeled cAMP (50 nM final concentration product # R7506 from Molecular Devices) and the activator cGMP (1 uM final concentration), prepared in the assay buffer (10 mM Tris HCl, pH 7.2, 10 mM MgCl2, 0.05% NaN3 0.01% Tween-20, and 1 mM DTT) was added to the assay plate and shaken to mix. The reaction is allowed to proceed at room temperature for 60 minutes. A binding solution is then made from the kit components, comprised of 80% Solution A, 20% Solution B and binding reagent at a volume of 1/600 the total binding solution. The enzymatic reaction is stopped by addition of 60 μL of the binding solution to each well of the assay plates and the plates are sealed and shaken for 30 seconds. The plate was incubated at room temperature for at least one hour prior to determining the fluorescence polarization (FP). The parallel and perpendicular fluorescence of each well of the plate was measured using a Tecan Genios Pro plate reader (Tecan, Switzerland) or Perkin Elmer EnVision™ plate reader (Waltham, Mass.). Fluorescence polarization (mP) was calculated from the parallel (S) and perpendicular (P) fluorescence of each sample well and the analogous values for the median control well, containing only substrate (So and Po), using the following equation: Polarization (mP)=1000*(S/So−P/Po)/(S/So+P/Po).
Dose-inhibition profiles for each compound were characterized by fitting the mP data to a four-parameter equation given below.
An apparent (KM) for FAM-labeled cAMP of ˜10 uM was used.

human PDE2A1 = human PDE2A1 (Homo sapiens (Human), UniProt O00408); assay: PDE selectivity IMAP FP assay, human PDE2A1; format: biochemical; settings: Human PDE2; Lab B; read-out: Human PDE2 Ki (nM) Lab B
Chain of human PDE2A1 (O00408 other isoform, or with tags, fused parts or gaps): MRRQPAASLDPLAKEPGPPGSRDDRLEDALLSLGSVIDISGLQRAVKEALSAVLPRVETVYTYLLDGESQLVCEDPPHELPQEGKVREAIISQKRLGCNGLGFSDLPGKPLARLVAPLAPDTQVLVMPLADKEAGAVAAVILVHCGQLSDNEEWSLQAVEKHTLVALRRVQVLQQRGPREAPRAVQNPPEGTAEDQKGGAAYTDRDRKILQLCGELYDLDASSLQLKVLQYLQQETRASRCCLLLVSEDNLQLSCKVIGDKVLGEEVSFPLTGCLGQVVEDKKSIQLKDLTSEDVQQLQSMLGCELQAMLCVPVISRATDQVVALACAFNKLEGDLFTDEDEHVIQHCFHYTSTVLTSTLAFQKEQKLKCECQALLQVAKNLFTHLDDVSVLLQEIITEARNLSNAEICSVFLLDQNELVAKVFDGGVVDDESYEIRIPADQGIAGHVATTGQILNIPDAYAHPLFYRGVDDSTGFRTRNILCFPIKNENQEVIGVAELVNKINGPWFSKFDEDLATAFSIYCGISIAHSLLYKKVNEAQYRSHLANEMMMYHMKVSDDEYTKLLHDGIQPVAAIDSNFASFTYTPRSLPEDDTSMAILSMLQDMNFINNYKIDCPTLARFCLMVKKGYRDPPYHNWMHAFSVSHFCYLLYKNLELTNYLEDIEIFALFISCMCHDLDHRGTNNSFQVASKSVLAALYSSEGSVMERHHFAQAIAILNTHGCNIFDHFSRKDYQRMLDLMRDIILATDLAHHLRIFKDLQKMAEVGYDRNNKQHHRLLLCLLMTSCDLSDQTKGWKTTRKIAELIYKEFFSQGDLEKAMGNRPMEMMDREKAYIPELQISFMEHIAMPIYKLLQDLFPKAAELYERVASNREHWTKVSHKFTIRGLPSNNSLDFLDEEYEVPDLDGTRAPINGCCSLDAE
Method in brief: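 Compound titrations run against PDE2 in Tris HCl pH 7.2 buffer with MgCl2 and DTT for 60 min at room temperature, using 50 nM FAM-cAMP plus 1000 nM cGMP and enzyme giving 20% conversion.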

[1] = Lab B, read-out: Rhesus PDE2 Ki (nM) Lab B
[2] = Lab A, read-out: Rhesus PDE2 Ki (nM) Lab A

Chain of Rhesus PDE2A3 (B3VTJ2 1-941): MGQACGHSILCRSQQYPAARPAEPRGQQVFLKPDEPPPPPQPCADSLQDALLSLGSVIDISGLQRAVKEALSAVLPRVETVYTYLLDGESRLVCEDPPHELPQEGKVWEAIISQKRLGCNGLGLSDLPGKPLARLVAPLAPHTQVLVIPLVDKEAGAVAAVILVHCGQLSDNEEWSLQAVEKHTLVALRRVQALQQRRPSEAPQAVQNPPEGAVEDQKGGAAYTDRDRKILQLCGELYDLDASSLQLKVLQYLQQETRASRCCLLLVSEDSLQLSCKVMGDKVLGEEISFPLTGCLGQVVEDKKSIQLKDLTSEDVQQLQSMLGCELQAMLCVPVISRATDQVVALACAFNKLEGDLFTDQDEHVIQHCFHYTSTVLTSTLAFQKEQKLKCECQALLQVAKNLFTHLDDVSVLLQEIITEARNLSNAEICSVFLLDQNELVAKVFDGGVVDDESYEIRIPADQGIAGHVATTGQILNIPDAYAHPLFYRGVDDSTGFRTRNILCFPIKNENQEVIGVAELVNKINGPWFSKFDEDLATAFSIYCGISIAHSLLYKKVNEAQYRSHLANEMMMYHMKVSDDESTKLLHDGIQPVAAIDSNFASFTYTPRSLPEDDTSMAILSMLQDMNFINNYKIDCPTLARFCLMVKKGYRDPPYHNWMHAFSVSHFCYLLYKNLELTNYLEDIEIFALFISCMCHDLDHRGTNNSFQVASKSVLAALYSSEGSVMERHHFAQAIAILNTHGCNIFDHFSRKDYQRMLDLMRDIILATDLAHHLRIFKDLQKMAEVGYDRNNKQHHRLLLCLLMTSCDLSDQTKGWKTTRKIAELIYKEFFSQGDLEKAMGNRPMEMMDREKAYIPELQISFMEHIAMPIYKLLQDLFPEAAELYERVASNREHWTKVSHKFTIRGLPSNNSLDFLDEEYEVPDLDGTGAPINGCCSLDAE

Ki (Rhesus PDE2A3; [1])	Ki (Rhesus PDE2A3; [2])	Ki (human PDE2A1)	Structure (SMILES)
209 nM	–	–	C[C@H](c1ccc(C(F)(F)F)c(F)c1)n1nc(CF)c2c(=O)[nH]c(O)nc21 (mixture of isomers) [Example 35, (R)- and (S)-1-(1-(3-Fluoro-4-(trifluoromethyl)phenyl)ethyl)-3-(fluoromethyl)-6-hydroxy-H-pyrazolo[3,4-d]pyrimidin-4(5H)-one]
364 nM	–	–	CC(c1ccc(C(F)(F)F)c(F)c1)n1nc(CO)c2c(=O)[nH]c(O)nc21 (single isomer, unassigned) [Example 2]
249 nM	145 nM	–	CC(c1ccc(OC(F)(F)F)c(F)c1)n1nc(CO)c2c(=O)[nH]c(O)nc21 (single isomer, unassigned) [Example 10]
34 nM	14 nM	–	CC(c1ccc(OC(F)(F)F)c(F)c1)n1nc(CO)c2c(=O)[nH]c(O)nc21 (single isomer, unassigned) [Example 11]
192 nM	–	–	CC(C)C(c1ccc(C(F)(F)F)cc1)n1nc(CO)c2c(=O)[nH]c(O)nc21 (single isomer, unassigned) [Example 12]
410 nM	–	–	O=c1[nH]c(O)nc2c1c(CO)nn2C(c1ccc(C(F)(F)F)cc1)C1CC1 (single isomer, unassigned) [Example 14]
17 nM	–	–	O=c1[nH]c(O)nc2c1c(CO)nn2C(c1ccc(C(F)(F)F)cc1)C1CC1 (single isomer, unassigned) [Example 15, (S) or (R)-1-(Cyclopropyl(4-(trifluoromethyl)phenyl)methyl)-6-hydroxy-3-(hydroxymethyl)-1H-pyrazolo[3,4-d]pyrimidin-4(5H)-one]
–	> 1000 nM	–	CC(c1ccc(C(F)(F)F)cc1)n1nc(CO)c2c(=O)[nH]c(O)nc21 (single isomer, unassigned) [Example 18, (R)- or (S)-6-Hydroxy-3-(hydroxymethyl)-1-{1-[4-(trinuoromethyl)phenyl]ethyl}-1,5-dihydro-4H-pyrazolo[3,4-d]pyrimidin-4-one]
–	~684 nM	–	CC(c1ccc(S(F)(F)(F)(F)F)cc1)n1nc(CO)c2c(=O)[nH]c(O)nc21 (single isomer, unassigned) [Example 20, (R)- or (S)-6-Hydroxy-3-(hydroxymethyl)-1-{1-[4-(pentafluorosulfanyl)phenyl]ethyl}-1,5-dihydro-4H-pyrazolo[3,4-d]pyrimidin-4-one]
253 nM	–	–	O=c1[nH]c(O)nc2c1c(CO)nn2C(CC(F)(F)F)c1ccc(C(F)(F)F)cc1 (single isomer, unassigned) [Example 22]
~2700 nM	–	–	O=c1[nH]c(O)nc2c1c(CO)nn2C(CC(F)(F)F)c1ccc(C(F)(F)F)cc1 (single isomer, unassigned) [Example 23]
~2270 nM	–	–	CC(C)(C)C(c1ccc(C(F)(F)F)c(F)c1)n1nc(CO)c2c(=O)[nH]c(O)nc21 (single isomer, unassigned) [Example 24]
238 nM	–	–	CC(C)(C)C(c1ccc(C(F)(F)F)c(F)c1)n1nc(CO)c2c(=O)[nH]c(O)nc21 (single isomer, unassigned) [Example 25]
117 nM	–	–	CC(C)C(c1ccc(C(F)(F)F)c(F)c1)n1nc(CO)c2c(=O)[nH]c(O)nc21 (single isomer, unassigned) [Example 28, (S)- or (R)-1-(1-(3-F1uoro-4-(trifluoromethyl)phenyl)-2-methylpropyl)-6-hydroxy-3-(hydroxymethyl)-1H-pyrazolo[3,4-d]pyrimidin-4(5H)-one]
220 nM	–	–	CC(C)(C)C(c1ccc(C(F)(F)F)cc1)n1nc(CO)c2c(=O)[nH]c(O)nc21 (single isomer, unassigned) [Example 29, (R)- or (S)-1-(2,2-Dimethyl-1-(4-(trifluoromethyl)phenyl)propyl)-6-hydroxy-3-(hydroxymethyl)-1H-pyrazolo[3,4-d]pyrimidin-4(5H)-one]
2040 nM	–	–	CC(C)(C)C(c1ccc(C(F)(F)F)cc1)n1nc(CO)c2c(=O)[nH]c(O)nc21 (single isomer, unassigned) [Example 30, (S)- or (R)-1-(2,2-Dimethyl-1-(4-(trifluoromethyl)phenyl)propyl)-6-hydroxy-3-(hydroxymethyl)-1H-pyrazolo[3,4-d]pyrimidin-4(5H)-one]
123 nM	–	–	CC(C)(C)C(c1ccc(C(F)(F)F)cc1)n1nc(CF)c2c(=O)[nH]c(O)nc21 (single isomer, unassigned) [Example 51]
910 nM	–	–	CC(C)(C)C(c1ccc(C(F)(F)F)cc1)n1nc(CF)c2c(=O)[nH]c(O)nc21 (single isomer, unassigned) [Example 52]
0.5 nM	–	–	CCC(c1ccc(CC(F)(F)F)c(F)c1)n1nc(CO)c2c(=O)[nH]c(N(C)C)nc21 (single isomer, unassigned) [Example 96, (R)- or (S)-6-(Dimethylamino)-1-(1-(3-fluoro-4-(2,2,2-trifluoroethyl)phenyl)propyl)-3-(hydroxymethyl)-1H-pyrazolo[3,4-d]pyrimidin-4(5H)-one]
0.54 nM	–	–	CCC(c1ccc(C(F)F)c(F)c1)n1nc(CO)c2c(=O)[nH]c(N(C)C)nc21 (single isomer, unassigned) [Example 147]
0.5 nM	–	–	CC(C)C(c1ccc(C(F)(F)F)c(F)c1)n1nc(CF)c2c(=O)[nH]c(N(C)C)nc21 (single isomer, unassigned) [Example 220, (R)- or (S)-6-(Dimethylamino)-1-(1-(3-fluoro-4-(trifluoromethyl)phenyl)-2-methylpropyl)-3-(fluoromethyl)-1H-pyrazolo[3,4-d]pyrimidin-4(5H)-one]
12 nM	–	–	O=c1[nH]c(O)nc2c1c(CC(F)(F)F)nn2C(c1ccc(C(F)(F)F)cc1)C1CC1 (single isomer, unassigned) [Example 227]
210 nM	–	–	O=c1[nH]c(O)nc2c1c(CC(F)(F)F)nn2C(c1ccc(C(F)(F)F)cc1)C1CC1 (single isomer, unassigned) [Example 228]
–	–	2.3 nM	C[C@@H](c1ccc(C(F)(F)F)cc1)n1nc(CO)c2c(=O)[nH]c(N3CC(F)(F)C3)nc21 [Example 159, 6-(3,3-Difluoroazetidin-1-yl)-3-(hydroxymethyl)-1-{(1S)-1-[4-(trifluoromethyl)phenyl]ethyl}-1,5-dihydro-4H-pyrazolo[3,4-d]pyrimidin-4-one]
–	–	1.8 nM	CSc1nc2c(c(CO)nn2[C@@H](C)c2ccc(C(F)(F)F)cc2)c(=O)[nH]1 [Example 301, (S)-3-(Hydroxymethyl)-6-(methylthio)-1-(1-(4-(trifluoromethyl)phenyl)ethyl)-1H-pyrazolo[3,4-d]pyrimidin-4(5H)-one]
–	–	2.1 nM	C[C@@H](c1ccc(C(F)(F)F)cc1)n1nc(C(F)(F)F)c2c(=O)[nH]c(N(C)C)nc21 [Example 339, (S)-6-(Dimethylamino)-3-(trifluoromethyl)-1-(1-(4-(trifluoromethyl)phenyl)ethyl)-1H-pyrazolo[3,4-d]pyrimidin-4(5H)-one]
–	–	2.4 nM	O=c1[nH]c(O)nc2c1c(C(F)(F)F)nn2C1(c2ccc(C(F)(F)F)cc2)CC1 [Example 354, 6-Hydroxy-3-(trifluoromethyl)-1-(1-(4-(trifluoromethyl)phenyl)cyclopropyl)-1H-pyrazolo[3,4-d]pyrimidin-4(5H)-one]
–	–	284 nM	C=CC(c1ccc(C(F)(F)F)cc1)n1nc(C(F)(F)F)c2c(=O)[nH]c(O)nc21 (stereo not shown) [Example 355, 6-Hydroxy-3-(trifluoromethyl)-1-(1-(4-(trifluoromethyl)phenyl)allyl)-1H-pyrazolo[3,4-d]pyrimidin-4(5H)-one]
–	–	3.7 nM	CCOc1nc2c(c(CO)nn2[C@@H](C)c2ccc(C(F)(F)F)cc2)c(=O)[nH]1 [compound 302, 6-Ethoxy-3-(hydroxymethyl)-1-{(1S)-1-[4-(trifluoromethyl)phenyl]ethyl}-1,5-dihydro-4H-pyrazolo[3,4-d]pyrimidin-4-one]

Structure (SMILES)	Ki (Rhesus PDE2A3; [1])	Ki (Rhesus PDE2A3; [2])	Ki (human PDE2A1)
CC1CN(c2nc3c(c(CO)nn3[C@@H](C)c3ccc(C(F)(F)F)cc3)c(=O)[nH]2)C1 [Example 160, 3-(Hydroxymethyl)-6-(3-methylazetidin-1-yl)-1-{(1S)-1-[4-(trifluoromethyl)phenyl]ethyl}-1,5-dihydro-4H-pyrazolo[3,4-d]pyrimidin-4-one]	–	–	1.6 nM
C[C@@H](c1ccc(C(F)(F)F)cc1)n1nc(C(F)F)c2c(=O)[nH]c(N(C)C)nc21 [Example 289, (S)-3-(Difluoromethyl)-6-(dimethylamino)-1-(1-(4-(trifluoromethyl)phenyl)ethyl)-1H-pyrazolo[3,4-d]pyrimidin-4(5H)-one]	–	–	0.25 nM
C[C@@H](c1ccc(C(F)(F)F)cc1)n1nc(C(F)F)c2c(=O)[nH]c(N3CCC3)nc21 [compound 290, 6-Azetidin-1-yl-3-(difluoromethyl)-1-{(1S)-1-[4-(trifluoromethyl)phenyl]ethyl}-1,5-dihydro-4H-pyrazolo[3,4-d]pyrimidin-4-one]	–	–	0.26 nM
